How the values were obtained:
human PC-3 cells = assay: Sulforhodamine B (SRB) assay, cytotoxicity against PC-3 cells; assay type: cell-based; settings: SRB assay, PC-3 cells
Method: Add 5% Fetal Bovine Serum (FBS) to 96-well plate and fix the cells with 10% TCA after 24 hours of incubation and add the compound (T0). Add DMSO and culture for another 48 hours and the cells are fixed in 0.4% (W/V), 10% TCA and SRB, and […]. Excess SRB is washed off by 1% acetic acid and cells stained with SRB are dissolved in 10 mmol/L Trizma base. The absorbance is measured at 515 nm. The treatment time is 0 (T0), control growth (C) and the increase of the compound (Tx) in the cells are shown below and are used to calculate the increase of the concentration of the compound in percentage. Growth inhibition (GI %) is calculated using the following formula 100−[(TX−T0)/(C−T0)]×100. The 50% growth inhibition concentration (IC50) is used to confirm the concentration of compound and thus results in 50% reduction of the treated cells which control the amount of total protein.
This part of experimental results are SRB assays measuring cytotoxicity of the 26 synthesized compounds against human PC-3 cells and are summarized in Table 1 and 2.

Solubility in DMSO = assay type: physicochemical; settings: order SJ-2<SJ-24<SJ-3<SJ-11
Text: The solubility of the four compounds in DMSO is poor, SJ-2<SJ-24<SJ-3<SJ-11, and therefore it is estimated and this is the reason why the three compounds which have previously proven to be effective against PC-3 cell line by SRB assays are ineffective in this experiment.

| Structure (SMILES) | melting point | Toxicity (%) (human PC-3 cells) | GI % (10 μM) (human PC-3 cells) | solubility in DMSO (Solubility in DMSO) |
| --- | --- | --- | --- | --- |
| O=C1c2cc(Cl)ccc2-c2c(N3CCCC3)nc3ccccc3c21 [SJ-4, 9-Chloro-6-(pyrrolidin-1-yl)-11H-indeno[1,2-c]quinolin-11-one] | 149 to 150 °C | 47.2% | 100% |  |
| O=C1c2cc(Cl)ccc2-c2c(N3CCCCC3)nc3ccccc3c21 [SJ-5, 9-Chloro-6-(piperidin-1-yl)-11H-indeno[1,2-c]quinolin-11-one] | 191 to 192 °C | 22.2% | 100% |  |
| O=C1c2cc(Cl)ccc2-c2c(N3CCCCCC3)nc3ccccc3c21 [SJ-7, 6-(Azepan-1-yl)-9-chloro-11H-indeno[1,2-c]quinolin-11-one] | 146 to 147 °C | 41.7% | 100% |  |
| CCN1CCN(c2nc3ccccc3c3c2-c2ccc(Cl)cc2C3=O)CC1 [SJ-13, 9-Chloro-6-(4-ethylpiperazin-1-yl)-11H-indeno[1,2-c]quinolin-11-one] | 182 to 184 °C | 29.7% | 100% |  |
| O=C1c2cc(Cl)ccc2-c2c(N3CCC(N4CCCCC4)CC3)nc3ccccc3c21 [SJ-15, 9-Chloro-6-(4-(piperidin-1-yl)piperidin-1-yl)-11H-indeno[1,2-c]quinolin-11-one] | 174 to 175 °C | 0% | 98.83% |  |
| O=C1c2cc(Cl)ccc2-c2c(N3CCN(Cc4ccccc4)CC3)nc3ccccc3c21 [SJ-17, 6-(4-Benzylpiperazin-1-yl)-9-chloro-11H-indeno[1,2-c]quinolin-11-one] | 178 to 180 °C | 0% | 73.53% |  |
| O=C1c2cc(Cl)ccc2-c2c(N3CCN(c4ccccc4F)CC3)nc3ccccc3c21 [SJ-18, 9-Chloro-6-(4-(2-fluorophenyl)piperazin-1-yl)-11H-indeno[1,2-c]quinolin-11-one] | 182 to 183 °C | 0% | 85.48% |  |
| COc1ccccc1N1CCN(c2nc3ccccc3c3c2-c2ccc(Cl)cc2C3=O)CC1 [SJ-19, 9-Chloro-6-(4-(2-methoxyphenyl)piperazin-1-yl)-11H-indeno[1,2-c]quinolin-11-one] | 129 to 131 °C | 8.5% | 100% |  |
| CN1CCC(N2CCN(c3nc4ccccc4c4c3-c3ccc(Cl)cc3C4=O)CC2)CC1 [SJ-21, 9-Chloro-6-(4-(1-methylpiperidin-4-yl)piperazin-1-yl)-11H-inden o[1,2-c]quinolin-11-one] | 208 to 209 °C | 66% | 100% |  |
| O=C1c2cc(Cl)ccc2-c2c(N3CCC4(CC3)OCCO4)nc3ccccc3c21 [SJ-22] | 218 to 219 °C | 42.6% | 100% |  |
| O=C1c2cc(Cl)ccc2-c2c(N3CCC(CCCC4CCNCC4)CC3)nc3ccccc3c21 [SJ-24, 9-Chloro-6-(4-(3-(piperidin-4-yl)propyl)piperidin-1-yl)-11H-indeno[1,2-c]quinolin-11-one] | 149 to 151 °C | 63.8% | 100% | poor |

From patent US20150197492A1, “NOVEL INDENO[1,2-c]QUINOLIN-11-ONE DERIVATIVES, PREPARATION METHOD AND APPLICATION THEREOF” (National Defense Medical Center, priority 2014, published 2015)
